Measurements from PubChem BioAssay (NCI).
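Exposure lasted 48 hours, with cells grown in 96-well plates and compounds tested at five concentrations. TGI marks complete inhibition of growth.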

Experiments:
Assay in all cases: NCI tumour cell line growth inhibition, 48 h
MOLT-4 leukemia = system: MOLT-4 leukemia
COLO 205 colon = system: COLO 205 colon
SN12C renal = system: SN12C renal
BT-549 breast = system: BT-549 breast
MDA-N = system: MDA-N
SW-620 colon = system: SW-620 colon
M14 melanoma = system: M14 melanoma
RPMI-8226 leukemia = system: RPMI-8226 leukemia
SNB-75 CNS = system: SNB-75 CNS
RXF 393 renal = system: RXF 393 renal
NCI-H226 lung = system: NCI-H226 lung
EKVX NSCLC = system: EKVX NSCLC
SK-OV-3 ovarian = system: SK-OV-3 ovarian
SF-268 CNS = system: SF-268 CNS
SK-MEL-28 melanoma = system: SK-MEL-28 melanoma
MCF7 breast = system: MCF7 breast
OVCAR-3 ovarian = system: OVCAR-3 ovarian
SF-539 CNS = system: SF-539 CNS
SF-295 CNS = system: SF-295 CNS
LOX IMVI melanoma = system: LOX IMVI melanoma
U251 CNS = system: U251 CNS
SK-MEL-5 melanoma = system: SK-MEL-5 melanoma
SNB-19 CNS = system: SNB-19 CNS
DU-145 prostate = system: DU-145 prostate
HCT-15 colon = system: HCT-15 colon
PC-3 prostate = system: PC-3 prostate
A549 NSCLC = system: A549 NSCLC
NCI/ADR-RES ovarian = system: NCI/ADR-RES ovarian
K-562 leukemia = system: K-562 leukemia
HS 578T breast = system: HS 578T breast
NCI-H23 lung = system: NCI-H23 lung
NCI-H460 lung = system: NCI-H460 lung
786-0 renal = system: 786-0 renal
MDA-MB-231 breast = system: MDA-MB-231 breast
ACHN renal = system: ACHN renal
A498 renal = system: A498 renal
HCC-2998 colon = system: HCC-2998 colon
MDA-MB-435 = system: MDA-MB-435
SK-MEL-2 melanoma = system: SK-MEL-2 melanoma
HCT-116 colon = system: HCT-116 colon
HOP-62 NSCLC = system: HOP-62 NSCLC
OVCAR-4 ovarian = system: OVCAR-4 ovarian
OVCAR-5 ovarian = system: OVCAR-5 ovarian
OVCAR-8 ovarian = system: OVCAR-8 ovarian
UO-31 renal = system: UO-31 renal
HOP-92 NSCLC = system: HOP-92 NSCLC
HT29 colon = system: HT29 colon
CAKI-1 renal = system: CAKI-1 renal
UACC-62 melanoma = system: UACC-62 melanoma
TK-10 renal = system: TK-10 renal
T-47D breast = system: T-47D breast
UACC-257 melanoma = system: UACC-257 melanoma
IGROV1 ovarian = system: IGROV1 ovarian
NCI-H522 lung = system: NCI-H522 lung
KM12 colon = system: KM12 colon
MALME-3M melanoma = system: MALME-3M melanoma
HL-60(TB) leukemia = system: HL-60(TB) leukemia
CCRF-CEM leukemia = system: CCRF-CEM leukemia

SMILES: Clc1ccc(N=C2c3ccccc3CN2c2ccc(Cl)cc2)cc1
- TGI (MOLT-4 leukemia): > 100 µM
- TGI (COLO 205 colon): > 100 µM
- TGI (SN12C renal): > 100 µM
- TGI (BT-549 breast): > 100 µM
- TGI (MDA-N): > 100 µM
- TGI (SW-620 colon): > 100 µM
- TGI (M14 melanoma): > 100 µM
- TGI (RPMI-8226 leukemia): > 100 µM
- TGI (SNB-75 CNS): > 100 µM
- TGI (RXF 393 renal): > 100 µM
- TGI (NCI-H226 lung): > 100 µM
- TGI (EKVX NSCLC): > 100 µM
- TGI (SK-OV-3 ovarian): > 100 µM
- TGI (SF-268 CNS): > 100 µM
- TGI (SK-MEL-28 melanoma): > 100 µM
- TGI (MCF7 breast): > 100 µM
- TGI (OVCAR-3 ovarian): > 100 µM
- TGI (SF-539 CNS): > 100 µM
- TGI (SF-295 CNS): > 100 µM
- TGI (LOX IMVI melanoma): > 100 µM
- TGI (U251 CNS): > 100 µM
- TGI (SK-MEL-5 melanoma): > 100 µM
- TGI (SNB-19 CNS): > 100 µM
- TGI (DU-145 prostate): > 100 µM
- TGI (HCT-15 colon): > 100 µM
- TGI (PC-3 prostate): > 100 µM
- TGI (A549 NSCLC): > 100 µM
- TGI (NCI/ADR-RES ovarian): > 100 µM
- TGI (K-562 leukemia): > 100 µM
- TGI (HS 578T breast): > 100 µM
- TGI (NCI-H23 lung): > 100 µM
- TGI (NCI-H460 lung): > 100 µM
- TGI (786-0 renal): > 100 µM
- TGI (MDA-MB-231 breast): > 100 µM
- TGI (ACHN renal): > 100 µM
- TGI (A498 renal): > 100 µM
- TGI (HCC-2998 colon): > 100 µM
- TGI (MDA-MB-435): > 100 µM
- TGI (SK-MEL-2 melanoma): > 100 µM
- TGI (HCT-116 colon): > 100 µM
- TGI (HOP-62 NSCLC): > 100 µM
- TGI (OVCAR-4 ovarian): > 100 µM
- TGI (OVCAR-5 ovarian): > 100 µM
- TGI (OVCAR-8 ovarian): > 100 µM
- TGI (UO-31 renal): > 100 µM
- TGI (HOP-92 NSCLC): > 100 µM
- TGI (HT29 colon): > 100 µM
- TGI (CAKI-1 renal): > 100 µM
- TGI (UACC-62 melanoma): > 100 µM
- TGI (TK-10 renal): > 100 µM
- TGI (T-47D breast): 94 µM
- TGI (UACC-257 melanoma): > 100 µM
- TGI (IGROV1 ovarian): > 100 µM
- TGI (NCI-H522 lung): > 100 µM
- TGI (KM12 colon): > 100 µM

SMILES: OCc1cc2c([nH]c3ccccc32)c(C(O)CO)n1 (centres undefined)
- TGI (MALME-3M melanoma): > 100 µM
- TGI (MOLT-4 leukemia): > 100 µM
- TGI (COLO 205 colon): > 100 µM
- TGI (SN12C renal): > 100 µM
- TGI (BT-549 breast): > 100 µM
- TGI (MDA-N): > 100 µM
- TGI (SW-620 colon): > 100 µM
- TGI (M14 melanoma): > 100 µM
- TGI (RPMI-8226 leukemia): > 100 µM
- TGI (SNB-75 CNS): > 100 µM
- TGI (NCI-H226 lung): > 100 µM
- TGI (EKVX NSCLC): > 100 µM
- TGI (SK-OV-3 ovarian): > 100 µM
- TGI (SF-268 CNS): > 100 µM
- TGI (SK-MEL-28 melanoma): > 100 µM
- TGI (MCF7 breast): > 100 µM
- TGI (HL-60(TB) leukemia): > 100 µM
- TGI (OVCAR-3 ovarian): > 100 µM
- TGI (SF-539 CNS): > 100 µM
- TGI (SF-295 CNS): > 100 µM
- TGI (LOX IMVI melanoma): > 100 µM
- TGI (U251 CNS): > 100 µM
- TGI (CCRF-CEM leukemia): > 100 µM
- TGI (SK-MEL-5 melanoma): > 100 µM
- TGI (SNB-19 CNS): > 100 µM
- TGI (DU-145 prostate): > 100 µM
- TGI (HCT-15 colon): > 100 µM
- TGI (PC-3 prostate): > 100 µM
- TGI (A549 NSCLC): > 100 µM
- TGI (NCI/ADR-RES ovarian): > 100 µM
- TGI (K-562 leukemia): > 100 µM
- TGI (HS 578T breast): > 100 µM
- TGI (NCI-H23 lung): > 100 µM
- TGI (NCI-H460 lung): > 100 µM
- TGI (786-0 renal): > 100 µM
- TGI (MDA-MB-231 breast): > 100 µM
- TGI (ACHN renal): > 100 µM
- TGI (A498 renal): > 100 µM
- TGI (HCC-2998 colon): > 100 µM
- TGI (MDA-MB-435): > 100 µM
- TGI (SK-MEL-2 melanoma): > 100 µM
- TGI (HCT-116 colon): > 100 µM
- TGI (OVCAR-4 ovarian): > 100 µM
- TGI (OVCAR-5 ovarian): > 100 µM
- TGI (OVCAR-8 ovarian): > 100 µM
- TGI (UO-31 renal): > 100 µM
- TGI (HOP-92 NSCLC): > 100 µM
- TGI (HT29 colon): > 100 µM
- TGI (CAKI-1 renal): > 100 µM
- TGI (UACC-62 melanoma): > 100 µM
- TGI (TK-10 renal): > 100 µM
- TGI (T-47D breast): > 100 µM
- TGI (UACC-257 melanoma): > 100 µM
- TGI (IGROV1 ovarian): > 100 µM
- TGI (NCI-H522 lung): > 100 µM
- TGI (KM12 colon): > 100 µM

SMILES: CN1C(=O)C(/C=N/NC(=O)c2cccnc2)C(N)N(C)C1=O (centres undefined)
- TGI (MALME-3M melanoma): > 100 µM
- TGI (MOLT-4 leukemia): > 100 µM
- TGI (COLO 205 colon): > 100 µM
- TGI (SN12C renal): > 100 µM
- TGI (BT-549 breast): > 100 µM
- TGI (MDA-N): > 100 µM
- TGI (SW-620 colon): > 100 µM
- TGI (M14 melanoma): > 100 µM
- TGI (RPMI-8226 leukemia): > 100 µM
- TGI (SNB-75 CNS): > 100 µM
- TGI (RXF 393 renal): > 100 µM
- TGI (NCI-H226 lung): > 100 µM
- TGI (EKVX NSCLC): > 100 µM
- TGI (SK-OV-3 ovarian): > 100 µM
- TGI (SF-268 CNS): > 100 µM
- TGI (SK-MEL-28 melanoma): > 100 µM
- TGI (MCF7 breast): > 100 µM
- TGI (OVCAR-3 ovarian): > 100 µM
- TGI (SF-295 CNS): > 100 µM
- TGI (U251 CNS): > 100 µM
- TGI (CCRF-CEM leukemia): > 100 µM
- TGI (SK-MEL-5 melanoma): > 100 µM
- TGI (SNB-19 CNS): > 100 µM
- TGI (DU-145 prostate): > 100 µM
- TGI (HCT-15 colon): > 100 µM
- TGI (PC-3 prostate): > 100 µM
- TGI (A549 NSCLC): > 100 µM
- TGI (NCI/ADR-RES ovarian): > 100 µM
- TGI (K-562 leukemia): > 100 µM
- TGI (HS 578T breast): > 100 µM
- TGI (NCI-H23 lung): > 100 µM
- TGI (NCI-H460 lung): > 100 µM
- TGI (786-0 renal): > 100 µM
- TGI (MDA-MB-231 breast): > 100 µM
- TGI (ACHN renal): > 100 µM
- TGI (HCC-2998 colon): > 100 µM
- TGI (MDA-MB-435): > 100 µM
- TGI (SK-MEL-2 melanoma): > 100 µM
- TGI (HCT-116 colon): > 100 µM
- TGI (HOP-62 NSCLC): > 100 µM
- TGI (OVCAR-4 ovarian): > 100 µM
- TGI (OVCAR-5 ovarian): > 100 µM
- TGI (OVCAR-8 ovarian): > 100 µM
- TGI (UO-31 renal): > 100 µM
- TGI (HT29 colon): > 100 µM
- TGI (CAKI-1 renal): > 100 µM
- TGI (UACC-62 melanoma): > 100 µM
- TGI (TK-10 renal): > 100 µM
- TGI (T-47D breast): > 100 µM
- TGI (UACC-257 melanoma): > 100 µM
- TGI (IGROV1 ovarian): > 100 µM
- TGI (NCI-H522 lung): > 100 µM
- TGI (KM12 colon): > 100 µM
